This is an account of results in PMC10237672, “Design and synthesis of novel anti-urease imidazothiazole derivatives with promising antibacterial activity against Helicobacter pylori” (PLOS ONE, 2023).

Data set [1] relates to H. pylori. The data set is described as follows: IC50 against H. pylori, micro broth dilution test. In kind it is cell-based, Helicobacter pylori. Particulars: Helicobacter pylori, ATCC43504; H. pylori ATCC 43504, micro broth dilution, 72 h, OD 600 nm; read-out: IC50 value against H. pylori ± SEM.
For data set [2], the system named is H. pylori. The data set is described as follows: MIC against H. pylori, agar dilution method. In kind it is cell-based, Helicobacter pylori. Particulars: Helicobacter pylori, ATCC43504; H. pylori ATCC 43504, agar dilution; read-out: MIC value against H. pylori ± SEM.
The target of a further data set is T1, Jack bean urease (Canavalia ensiformis, UniProt P07374).
T1 construct: purchased Sigma Aldrich
The data set is described as follows: biochemical. The class given is biochemical. On the procedure: Reaction mixture comprising 40 μL of buffer (K2HPO4: 10 mmol/L, urea: 100 mmol/L, […]: 10 mmol/L, EDTA: 1 /L mmol, pH = 8.2) and 5 U/mL enzyme (10 μL) were pre-incubated with 10 μL of synthesized compounds (1 mM) and substrate urea (1 mM) were incubated at room temperature in 96 well plate for half an hour. After the incubation at room temperature, absorbance was taken at specific wavelength (630 nm) employing a microplate reader (Bio-Tek, USA) with R1 and R2 reagents in each well. The reactions were measured in triplicate fashion. To calculate the inhibition percentage following equation was used.
Percentage inhibition = 100 –[tested compound/control compound] × 100.

The nature of the next data set: Caco-2 A-B permeability. As to conditions: human, pH 6.5–7.4, test concentration = MIC against H. pylori (19-50 μM), reference drugs 10 μM. The class given is in vitro ADME. On the procedure:
The apparent permeability coefficient (Papp) of the test compound was calculated as follows: Papp(cm/s)=VR*CR,end/Δt*1/A*(CD,mid‐CR,mid) where VR is the volume of the receiver chamber. CR,end is the concentration of the test compound in the receiver chamber at the end time point, Δt is the incubation time and A is the surface area of the cell monolayer. CD,mid is the calculated mid-point concentration of the test compound in the donor side, which is the mean value of the donor concentration at time 0 minute and the donor concentration at the end time point. CR,mid is the mid-point concentration of the test compound in the receiver side, which is one half of the receiver concentration at the end time point. Concentrations of the test compound were expressed as peak areas of the test compound.
The recovery of the test compound was calculated as follows: Recovery(%)=VD*CD,end+VR*CR,end/VD*CD0*100 where VD and VR are the volumes of the donor and receiver chambers, respectively. CD,end is the concentration of the test compound in the donor sample at the end time point. CR,end is the concentration of the test compound in the receiver sample at the end time point. CD0 is the concentration of the test compound in the donor sample at time zero. Concentrations of the test compound are expressed as peak areas of the test compound.
Fluorescein was used as the cell monolayer integrity marker. Fluorescein permeability assessment (in the A-B direction at pH 7.4 on both sides) was executed after the permeability assay for the test compound.

Values after ≈ are worked out from the molar mass of the structure shown. Structures can show the parent of a compound that is named as a salt. Where two headings read alike, the source gives them in different places.

T1 sequence (P07374 whole entry, looked up): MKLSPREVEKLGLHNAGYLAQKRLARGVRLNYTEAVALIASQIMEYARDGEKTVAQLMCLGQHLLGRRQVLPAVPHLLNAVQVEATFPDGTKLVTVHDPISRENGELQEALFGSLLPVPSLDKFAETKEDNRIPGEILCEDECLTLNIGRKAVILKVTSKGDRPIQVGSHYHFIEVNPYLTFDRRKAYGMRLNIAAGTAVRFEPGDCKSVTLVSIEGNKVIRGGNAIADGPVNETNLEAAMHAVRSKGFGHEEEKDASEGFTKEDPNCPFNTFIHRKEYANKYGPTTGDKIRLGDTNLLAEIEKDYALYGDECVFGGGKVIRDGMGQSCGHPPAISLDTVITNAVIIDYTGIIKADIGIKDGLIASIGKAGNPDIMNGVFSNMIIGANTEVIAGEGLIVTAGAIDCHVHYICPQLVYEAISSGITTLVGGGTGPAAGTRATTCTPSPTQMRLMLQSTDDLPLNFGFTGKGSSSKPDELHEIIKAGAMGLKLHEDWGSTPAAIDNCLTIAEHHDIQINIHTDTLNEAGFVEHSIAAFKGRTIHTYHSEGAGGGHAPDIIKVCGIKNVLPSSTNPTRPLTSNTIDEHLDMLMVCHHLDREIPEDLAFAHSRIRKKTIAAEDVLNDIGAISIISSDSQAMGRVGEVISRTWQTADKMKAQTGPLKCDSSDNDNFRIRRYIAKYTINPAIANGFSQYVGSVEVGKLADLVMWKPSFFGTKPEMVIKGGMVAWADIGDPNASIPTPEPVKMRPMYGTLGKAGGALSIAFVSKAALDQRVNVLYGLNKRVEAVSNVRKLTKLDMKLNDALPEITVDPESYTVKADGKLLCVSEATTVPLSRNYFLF

For `O=S(=O)(Oc1cccc(-c2nc3sccn3c2-c2ccccc2)c1)c1ccc(F)cc1` [Compound 1f, 3-(5-Phenylimidazo[2,1-b]thiazol-6-yl)phenyl 4-fluorobenzenesulfonate], the IC50 in the data set with H. pylori [1] came out at 147 µM; against Jack bean urease it was 5.17 ± 0.01 µM. For the same compound, in the data set on H. pylori [2], the MIC was found to be 200 µM (≈ 90.1 µg/mL).

Turning to `CS(=O)(=O)c1cccc(-c2c(-c3cccc(OS(=O)(=O)N4CCCCC4)c3)nc3sccn23)c1` [Compound 2j, 3-(5-(3-(Methylsulfonyl)phenyl)imidazo[2,1-b]thiazol-6-yl)phenyl piperidine-1-sulfonate], the melting point fell in the range of 76 to 79 °C. Besides, in the data set on H. pylori [1], the IC50 worked out at 288 ± 18 µM. Besides, the minimum inhibitory concentration (MIC) in the data set with H. pylori [2] was determined as 800 µM (≈ 414 µg/mL). Moreover, the concentration for half-maximal inhibition (IC50) on Jack bean urease turned out to be 5.82 ± 0.02 µM.

`CCS(=O)(=O)Oc1cccc(-c2nc3sccn3c2-c2ccccc2)c1` [Compound 1b, 3-(5-Phenylimidazo[2,1-b]thiazol-6-yl)phenyl ethanesulfonate] returned a melting point of 119 to 121 °C. Moreover, the IC50 with H. pylori [1] came out at 82 ± 29 µM. In the data set on H. pylori [2], the MIC was determined as 800 µM. The compound also registered an IC50 against Jack bean urease of 4.01 ± 0.11 µM.

The compound `CNS(=O)(=O)Oc1cccc(-c2nc3sccn3c2-c2cccc(S(C)(=O)=O)c2)c1` [Compound 2i, 3-(5-(3-(Methylsulfonyl)phenyl)imidazo[2,1-b]thiazol-6-yl)phenyl methylsulfamate] gave a melting point of more than 250 °C. Moreover, the IC50 in the data set with H. pylori [1] is 123 ± 15 µM. In addition, in the data set with H. pylori [2], the MIC was determined as 250 ± 50 µM (≈ 116 µg/mL). The compound also returned an IC50 against Jack bean urease of 4.74 ± 0.21 µM.

Compound `O=S(=O)(Oc1cccc(-c2nc3sccn3c2-c2ccccc2)c1)c1ccc(F)cc1` (as salt: benzenesulfonate) [Compound 1f, 3-(5-Phenylimidazo[2,1-b]thiazol-6-yl)phenyl 4-fluorobenzenesulfonate] registered a melting point of 109 to 111 °C.

Take `CC(CCc1ccccc1)NCC(O)c1ccc(O)c(C(N)=O)c1` (centres unmarked) [Labetalol, reference compound]: in “Caco-2 A-B permeability”, the Papp was found to be 19.2 ± 0.56 ×10⁻⁶ cm/s and the recovery stood at 99.1%.

`O=S(=O)(Oc1cccc(-c2nc3sccn3c2-c2ccccc2)c1)N1CCCCC1` [Compound 1j, 3-(5-Phenylimidazo[2,1-b]thiazol-6-yl)phenyl piperidine-1-sulfonate] yielded a melting point of 112 to 115 °C. For the same compound, the IC50 in the data set with H. pylori [1] was 131 ± 2 µM. Further, the minimal inhibitory concentration (MIC) in the data set on H. pylori [2] turned out to be 200 µM (≈ 87.9 µg/mL). This compound also registered a 50% inhibitory concentration (IC50) at Jack bean urease of 6.97 ± 0.09 µM.

Compound `CS(=O)(=O)c1cccc(-c2c(-c3cccc(OS(N)(=O)=O)c3)nc3sccn23)c1` [Compound 2h, 3-(5-(3-(Methylsulfonyl)phenyl)imidazo[2,1-b]thiazol-6-yl)phenyl sulfamate] came in with a melting point of 150 to 153 °C. For the same compound, the IC50 with H. pylori [1] came to 225 ± 5 µM. Further, in the data set with H. pylori [2], the MIC was 400 µM (≈ 180 µg/mL). The same compound returned an IC50 on Jack bean urease of 4.72 ± 0.13 µM.

As for `CS(=O)(=O)Oc1cccc(-c2nc3sccn3c2-c2cccc(S(C)(=O)=O)c2)c1` [Compound 2a, 3-(5-(3-(Methylsulfonyl)phenyl)imidazo[2,1-b]thiazol-6-yl)phenyl methanesulfonate], the melting point was 159 to 160 °C. Also, the half-inhibitory concentration (IC50) in the data set on H. pylori [1] turned out to be 118 ± 5 µM. Also, the MIC with H. pylori [2] turned out to be 250 ± 50 µM. In addition, on Jack bean urease, half-maximal inhibition (IC50) required 5.01 ± 0.03 µM.

In the case of `CS(=O)(=O)c1cccc(-c2c(-c3cccc(OS(=O)(=O)c4ccc(F)cc4)c3)nc3sccn23)c1` (as salt: benzenesulfonate) [Compound 2f, 3-(5-(3-(Methylsulfonyl)phenyl)imidazo[2,1-b]thiazol-6-yl)phenyl 4-fluorobenzenesulfonate], the melting point lay within 103 to 105 °C.

Compound `CNS(=O)(=O)Oc1cccc(-c2nc3sccn3c2-c2ccccc2)c1` [Compound 1i, 3-(5-Phenylimidazo[2,1-b]thiazol-6-yl)phenyl methylsulfamate] displayed a melting point of 161 to 164 °C. In the data set with H. pylori [1], the IC50 was 285 ± 92 µM. Besides, in the data set with H. pylori [2], the MIC came to 800 µM (≈ 308 µg/mL). In addition, on Jack bean urease, the IC50 turned out to be 5.51 ± 0.17 µM.

With `NC(N)=S` [thiourea, reference compound], the half-maximal inhibitory concentration (IC50) at Jack bean urease (indophenol method, triplicate, thiourea positive control, read-out: Potency against urease IC50 ± SEM) worked out at 22.3 ± 0.031 µM.

In turn, `Cc1ccc(S(=O)(=O)Oc2cccc(-c3nc4sccn4c3-c3cccc(S(C)(=O)=O)c3)c2)cc1` [Compound 2g, 3-(5-(3-(Methylsulfonyl)phenyl)imidazo[2,1-b]thiazol-6-yl)phenyl 4-methylbenzenesulfonate] registered a melting point of 172 to 174 °C. In addition, in the data set on H. pylori [1], the IC50 was 103 ± 88 µM. For the same compound, in the data set with H. pylori [2], the MIC came out at 275 ± 125 µM (≈ 144 µg/mL). The compound also returned an IC50 against Jack bean urease of 5.59 ± 0.04 µM.

In turn, `CCCS(=O)(=O)Oc1cccc(-c2nc3sccn3c2-c2ccccc2)c1` [Compound 1c, 3-(5-Phenylimidazo[2,1-b]thiazol-6-yl)phenyl propane-1-sulfonate] yielded a melting point of 120 to 123 °C. In addition, the IC50 in the data set with H. pylori [1] was found to be 364 µM. Further, the MIC in the data set on H. pylori [2] is 800 µM (≈ 319 µg/mL). Moreover, it took 4.04 ± 0.09 µM to reach half-maximal inhibition against Jack bean urease (IC50).

In the data set “Caco-2 A-B permeability”, `CC(C)NCC(O)COc1cccc2ccccc12` (centres unmarked) [Propranolol, reference compound] gave a Papp of 39 ± 0.44 ×10⁻⁶ cm/s and a recovery of 88.7%.

Turning to `CS(=O)(=O)c1cccc(-c2c(-c3cccc(OS(=O)(=O)c4ccccc4)c3)nc3sccn23)c1` [Compound 2e, 3-(5-(3-(Methylsulfonyl)phenyl)imidazo[2,1-b]thiazol-6-yl)phenyl benzenesulfonate], the IC50 is 331 ± 21 µM in the data set with H. pylori [1] and 5.21 ± 0.03 µM against Jack bean urease. For the same compound, in the data set on H. pylori [2], the MIC is 409 ± 391 µM.

`O=S(=O)(Oc1cccc(-c2nc3sccn3c2-c2ccccc2)c1)c1ccccc1` (as salt: benzenesulfonate) [Compound 1e, 3-(5-Phenylimidazo[2,1-b]thiazol-6-yl)phenyl benzenesulfonate] returned a melting point of 119 to 122 °C.

The compound `CCS(=O)(=O)Oc1cccc(-c2nc3sccn3c2-c2cccc(S(C)(=O)=O)c2)c1` [Compound 2b, 3-(5-(3-(Methylsulfonyl)phenyl)imidazo[2,1-b]thiazol-6-yl)phenyl ethanesulfonate] gave a melting point of 206 to 209 °C. Further, in the data set with H. pylori [1], the IC50 is 255 ± 35 µM. For the same compound, the MIC in the data set with H. pylori [2] was found to be 800 µM. The compound also displayed an IC50 on Jack bean urease of 4.97 ± 0.11 µM.

Take `O=S(=O)(Oc1cccc(-c2nc3sccn3c2-c2ccccc2)c1)c1ccccc1` [Compound 1e, 3-(5-Phenylimidazo[2,1-b]thiazol-6-yl)phenyl benzenesulfonate]: the half-maximal inhibitory concentration (IC50) in the data set with H. pylori [1] was 153 ± 33 µM; against Jack bean urease it was 4.3 ± 0.01 µM. Further, the MIC in the data set on H. pylori [2] was 400 µM.

As for `Cc1ccc(S(=O)(=O)Oc2cccc(-c3nc4sccn4c3-c3ccccc3)c2)cc1` [Compound 1g, 3-(5-Phenylimidazo[2,1-b]thiazol-6-yl)phenyl 4-methylbenzenesulfonate], the melting point lay in the range of 103 to 106 °C. Further, the IC50 in the data set on H. pylori [1] amounted to 37 ± 6 µM. In addition, the MIC in the data set on H. pylori [2] came to 150 ± 29 µM (≈ 67 µg/mL). Besides, the IC50 at Jack bean urease is 3.22 ± 0.06 µM.

For `CS(=O)(=O)c1cccc(-c2c(-c3cccc(OS(=O)(=O)c4ccccc4)c3)nc3sccn23)c1` (as salt: benzenesulfonate) [Compound 2e, 3-(5-(3-(Methylsulfonyl)phenyl)imidazo[2,1-b]thiazol-6-yl)phenyl benzenesulfonate], the melting point fell in the range of 193 to 195 °C.
